Data reported in publication PMC3419744, “Anti-Tumor Activity of a Novel HS-Mimetic-Vascular Endothelial Growth Factor Binding Small Molecule” (PLoS ONE, 2012).
Entries after “also recorded” stand apart in the source; their conditions may differ. Where two headings read alike, the source gives them in different places.

What was measured:
VEGF = target: T1, VEGF (Homo sapiens, UniProt P15692); assay: SPR imaging of immobilized small molecules binding to VEGF; conditions: compounds immobilized on chip, growth factor 50 µg/mL
T1 construct: purchased Wako Pure Chemicals Co. (Osaka, Japan)
T1 sequence (P15692 1-191 isoform P15692-4): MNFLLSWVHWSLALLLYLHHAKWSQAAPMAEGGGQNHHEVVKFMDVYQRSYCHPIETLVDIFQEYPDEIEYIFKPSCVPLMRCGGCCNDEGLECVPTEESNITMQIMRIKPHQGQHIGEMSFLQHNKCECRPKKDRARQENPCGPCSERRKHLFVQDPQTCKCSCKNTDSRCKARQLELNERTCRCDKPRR
Protocol: (§1) The chip was washed successively with ethanol, water, and ethanol. Then the chip is air dried to obtain the photo reactive chip. The compounds 1–9 were spotted on the chip (10 mM), washed, and dried in vacuo, and then irradiated at 365 nm under a UV transmission filter (Sigma-Koki, Japan). The compounds were immobilized onto the photo-reactive linker that bound to the gold-surface of the glass chip was set into an SPR imaging instrument (TOYOBO), and each growth factor (50 µg/mL) was injected onto the array surface at 0.1 ml/min and incubated for 10 min. The SPR image and signal data were collected with an SPR analysis program (TOYOBO). The SPR difference image was constructed by using the Scion Image program (Scion, MD).

LM8G7 cells = assay: Proliferation assay (TetraColor One), LM8G7 cells; assay type: cell-based, murine; conditions: for IC50: NS = not significant, read-out: IC50, inhibition of proliferation, LM8G7
Protocol: (§2) Two tumor cell lines such as LM8, LM8G7, and UV♀2 endothelial were used to evaluate the anti-proliferative activity of the compounds. UV♀2 (1×10^4 cells) or LM8 or LM8G7 cells (5×10^3 cells) were seeded in 96-well plate and incubated overnight at 37°C. […] 5 µL of TetraColor One reagent was added and incubated for an additional 2–4 h and the absorbance at 450 nm (Bio-Rad) was measured. […] The results were expressed as a percentage of viable cells relative to cells treated with DMSO. The viability of the cells was expressed in percentage terms and IC50 value was calculated.

LM8 cells = assay: Proliferation assay (TetraColor One), LM8 cells; assay type: cell-based, murine; conditions: for IC50: 48 h, NS = not significant, read-out: IC50, inhibition of proliferation, LM8
Protocol: as §2

UV♀2 cells = assay: Proliferation assay (TetraColor One), UV♀2 endothelial cells; assay type: cell-based, mouse; conditions: for IC50: 48 h, serum-containing conditions (10%FBS), NS = not significant, read-out: IC50, inhibition of proliferation, UV♀2
Protocol: as §2

[1] = target: T2, VEGF165 binding to immobilised heparin (Homo sapiens, UniProt P15692); assay: BIAcore analysis of VEGF165 binding to immobilised heparin; conditions: VEGF165 250 nM
T2 construct: purchased Wako Pure Chemicals Co. (Osaka, Japan)
T2 sequence (P15692 1-191 isoform P15692-4): T1 sequence (P15692 1-191 isoform P15692-4)
Protocol: The heparin-immobilized sensor chip was prepared as reported earlier. […] The flow rate was kept at a moderate speed ([…]) according to the manufacturer's recommendations.

FGF-2 = target: T3, FGF-2 (Homo sapiens, UniProt P09038); assay: SPR imaging of immobilized small molecules binding to FGF-2; conditions: compounds immobilized on chip, growth factor 50 µg/mL
T3 construct: purchased Wako Pure Chemicals Co. (Osaka, Japan)
T3 sequence (P09038 134-288): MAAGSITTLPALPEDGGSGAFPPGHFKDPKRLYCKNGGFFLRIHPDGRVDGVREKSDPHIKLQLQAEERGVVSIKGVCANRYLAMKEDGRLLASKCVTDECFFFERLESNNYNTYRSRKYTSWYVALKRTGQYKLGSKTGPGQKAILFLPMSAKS
Protocol: as §1

[2] = Mus musculus, LM8G7, 48 h, 48 h

binding to VEGF (SPR signal) (VEGF)	Structure (SMILES)	IC50 (LM8G7 cells; [2]) [µM]	IC50 (LM8 cells; Mus musculus) [µM]	IC50 (UV♀2 cells; Mus musculus, Endothelial cell) [µM]	other results
does not bind VEGF	Fc1cccc(F)c1C=Nn1c(S)nnc1-c1ccccc1 [compound 7, 4-[(2,6-difluoro-benzylidene)-amino]-5-phenyl-4H-[1,2,4]triazole-3-thiol]	> 100	> 100	> 100	inhibition of binding of VEGF165 to immobilised heparin [1]: failed to inhibit the binding of VEGF to heparin
	Cc1nnc(S)n1N=Cc1c(F)cccc1F [compound 5, 4-[(2,6-Difluoro-benzylidene)-amino]-5-methyl-4H-[1,2,4]triazole-3-thiol]	> 100	36 ± 6.4	45 ± 2.1	
	N.N.[Cl][Pt][Cl] [Cisplatin, reference compound]				IC50 (LM8G7 cells; 48 h): 15 ± 0.6 µM; IC50 (LM8 cells): 30 ± 24 µM; IC50 (UV♀2 cells): 12 ± 0.4 µM
	Cc1ccc(C(=O)Nc2ccc(S(=O)(=O)O)c3cc(S(=O)(=O)O)cc(S(=O)(=O)O)c23)cc1NC(=O)c1cccc(NC(=O)Nc2cccc(C(=O)Nc3cc(C(=O)Nc4ccc(S(=O)(=O)O)c5cc(S(=O)(=O)O)cc(S(=O)(=O)O)c45)ccc3C)c2)c1 [Suramin, reference compound]		12 ± 2.8	34 ± 1.4	inhibition of proliferation of LM8G7 cells (in words) (LM8G7 cells): comparable with the inhibitory activity of compound 8; IC50 (LM8G7 cells; Mus musculus, LM8G7, 48 h): 14 ± 24 µM; inhibition of proliferation of LM8 cells (in words) (LM8 cells): comparable with the inhibitory activity of compound 8
	CCCCc1nc(Cl)c(C=O)n1Cc1cc2c(cc1C)OCO2 [compound 9]				IC50 (LM8G7 cells; 48 h): > 100 µM; IC50 (LM8 cells): 46 ± 6.7 µM; IC50 (UV♀2 cells): > 100 µM
very strongly; also recorded: strongly	CCCCc1nc(Cl)c(C=O)n1Cc1ccc([N+](=O)[O-])cc1 [compound 8, 2-butyl-5-chloro-3-(4-nitro-benzyl)-3H-imidazole-4-carbaldehyde]				binding to FGF-2 (SPR signal) (FGF-2): significantly, although with weaker affinity compared to its VEGF binding; also recorded: weakly; inhibition of binding of VEGF165 to immobilised heparin [1]: inhibited the binding of VEGF165 to the immobilised heparin

Structure (SMILES)	binding to VEGF (SPR signal) (VEGF)	IC50 (LM8G7 cells; [2]) [µM]	IC50 (LM8 cells; Mus musculus) [µM]	IC50 (UV♀2 cells; Mus musculus, Endothelial cell) [µM]	other results
CCc1nnc(S)n1N=Cc1c(F)cccc1F [compound 6, 4-[(2,6-Difluoro-benzylidene)-amino]-5-ethyl-4H-[1,2,4]triazole-3-thiol]	significantly; also recorded: weak binding	23 ± 0.5	64 ± 6.7	14 ± 4.6	effect on proliferation of UV♀2 cells (in words) (UV♀2 cells): moderately inhibited
